Measured values reported in US10213397B2, “Microtubule polymerization modulators for treating LMNA-related dilated cardiomyopathy” (priority 2016, dated 2019).
Entries after “also recorded” stand apart in the source; their conditions may differ.

How the values were obtained:
[1] = test system: familial Mediterranean fever (FMF); conditions: long-term use; reference 3; cited from earlier work
LMNA cells = conditions: laboratory studies, reference 4 (Larrieu et al.); cited from earlier work
[2] = test system: patient diagnosed with LMNA-related DCM; experiment: Treatment of patient diagnosed with LMNA-related dilated cardiomyopathy (case report); assay type: in vivo, human; conditions: for patient's condition: carvedilol 25 mg twice daily with eplerenone 25 mg once daily, before colchicine
Source text: In August of 2013 patient […] was diagnosed with LMNA-related DCM, also known as “cardiac laminopathy,” an inherited degenerative cardiac disorder characterized by left ventricular dilation, arrhythmia, and cardiac enlargement. It is a subset of “non-ischemic cardiomyopathy.”
The patient worked as a college professor and the patient's condition worsened throughout the 2013-14 school year. The patient was heading toward long-term disability due to fatigue, shortness of breath and palpitations, all due to their progressive heart failure. In October, an implantable defibrillator was placed in the patient's chest, and the patient was hospitalized twice for cardiac arrhythmias (i.e., once for excessive premature ventricular contractions or TVCs′, and once for cardiac resynchronization for atrial fibrillation). Because conventional heart failure therapy appeared unsuccessful at ameliorating disease effects, the patient undertook a comprehensive review of literature on laminopathy to find a novel treatment.
In June 2014, the patient began experiencing PVC-burden cardiomyopathy, a secondary myopathy caused by a heavy premature ventricular contraction (PVC) load. Their PVCs were measured at 52,000 over a 48-hour holter-monitor. Given their deteriorating condition, now with NYHA class III heart failure, they sought care at Northwestern University's Bluhm Cardiovascular Institute in Chicago with Dr. Jane Wilcox.
Dr. Wilcox adjusted the patient's existing medication regimen to reflect best practice for treating dilated cardiomyopathy. The patient began taking 25 mg twice daily of carvedilol, as well as 25 mg once daily of eplerenone.
In January 2015, the patient underwent an unsuccessful procedure to ablate cardiac tissue causing their PVC burden. Their heart ejection fraction (EF), previously measured at 55%, was now measured at 45%. Later that month, the patient was hospitalized for Sotalol (antiarrhythmic drug) initiation. Sotalol was also unsuccessful in treating the patient's PVCs.
The patient had been very symptomatic with PVC's and could tell when his they were having PVC's.
Further, the patient was now considered to have NYHA class I heart failure symptoms and able to resume all previous activities, including running and biking, whereas previously the patient was NYHA class III (i.e., heart failure symptoms with mild activity).
As of July 2016, the patient stopped taking Sotalol because it seemed superfluous in respect to the patient's carvedilol regimen, and the patient has continued to be NYHA class I (i.e. asymptomatic).

[3] = cited from earlier work

COc1cc2c(c(OC)c1OC)-c1ccc(OC)c(=O)cc1[C@@H](NC(C)=O)CC2 [colchicine]
treatment of FMF (preventing attacks, reduction of symptoms, prevention and treatment of amyloidosis) [1]: very effective
nuclear shape defects characteristic of LMNA cells (LMNA cells): rescue nuclear shape defects
negative side effects ([2]; 1.8 mg colchicine twice daily (3.6 mg total dose), monitored for myelosuppression): no negative side effects; also recorded: has not experienced negative side effects
NYHA class of heart failure symptoms ([2]; August 2015, previously NYHA class III): NYHA class I
improvement in cardiac output, measured non-invasively using LVOT velocity time integral (VTI) ([2]; August 2015 echocardiogram, colchicine started early 2015): 20%
ventricular remodeling (left ventricular size and volume) ([2]; February 2016 echocardiogram): positive ventricular remodeling
cardiac output (LVOT) ([2]; February 2016 echocardiogram, LVOT initially was 15): 22
ejection fraction ([2]; February 2016 echocardiogram, improvement from 40-45%): 55%
NYHA class of heart failure symptoms ([2]; as of July 2016, after stopping eplerenone and Sotalol): NYHA class I
general condition / overall health of the patient ([2]; on colchicine, at higher doses than typically used for gout): dramatic recovery; also recorded: continued to improve
PVC volume ([2]; within 48 hours of colchicine administration, patient with LMNA-related DCM): diminished considerably
toxicity with P-gp or strong CYP3A4 inhibitors ([3]; patients with renal or hepatic impairment, colchicine taken in therapeutic doses): life-threatening and fatal colchicine toxicity
frequency of agranulocytosis, thrombocytopenia, aplastic anemia, leukopenia, granulocytopenia, pancytopenia (hematologic, rare) ([3]; reported adverse reactions): less than 0.1%
frequency of alopecia (dermatologic, rare) ([3]; reported adverse reactions): less than 0.1%
frequency of azoospermia, oligospermia (genitourinary, rare) ([3]; reported adverse reactions): less than 0.1%
frequency of myopathy, rhabdomyolysis, elevated CPK, myotonia, muscle weakness, muscle pain (musculoskeletal, rare) ([3]; reported adverse reactions): less than 0.1%
frequency of pharyngolaryngeal pain (respiratory, common) ([3]; reported adverse reactions): 3%

COc1ccccc1OCCNCC(O)COc1cccc2[nH]c3ccccc3c12 (stereo not drawn) [carvedilol]
patient's condition [2]: continued to deteriorate

COC(=O)[C@@H]1CC2=CC(=O)CC[C@]2(C)[C@@]23O[C@@H]2C[C@@]2(C)[C@@H](CC[C@@]24CCC(=O)O4)[C@H]13 [eplerenone]
reason for ceasing drug (potassium levels) ([2]; March 2016): elevated potassium levels
patient's condition [2]: continued to deteriorate

CC(C)NCC(O)c1ccc(NS(C)(=O)=O)cc1 (stereo not drawn) [Sotalol]
treatment of the patient's PVCs ([2]; January 2015, before colchicine): unsuccessful
